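Each compound was tested at five concentrations against cells in 96-well plates for 48 hours. The concentration for full growth arrest is given as TGI.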 Where a SMILES comes first, the peptide text is derived from it.
Key:
Assay in all cases: growth of human tumour cells (NCI), 48 h
786-0 renal = test system: 786-0 renal
A498 renal = test system: A498 renal
A549 NSCLC = test system: A549 NSCLC
ACHN renal = test system: ACHN renal
BT-549 breast = test system: BT-549 breast
CAKI-1 renal = test system: CAKI-1 renal
CCRF-CEM leukemia = test system: CCRF-CEM leukemia
COLO 205 colon = test system: COLO 205 colon
DU-145 prostate = test system: DU-145 prostate
EKVX NSCLC = test system: EKVX NSCLC
HCT-116 colon = test system: HCT-116 colon
HCT-15 colon = test system: HCT-15 colon
HL-60(TB) leukemia = test system: HL-60(TB) leukemia
HOP-62 NSCLC = test system: HOP-62 NSCLC
HOP-92 NSCLC = test system: HOP-92 NSCLC
HS 578T breast = test system: HS 578T breast
HT29 colon = test system: HT29 colon
IGROV1 ovarian = test system: IGROV1 ovarian
K-562 leukemia = test system: K-562 leukemia
KM12 colon = test system: KM12 colon
LOX IMVI melanoma = test system: LOX IMVI melanoma
M14 melanoma = test system: M14 melanoma
MALME-3M melanoma = test system: MALME-3M melanoma
MCF7 breast = test system: MCF7 breast
MDA-MB-231 breast = test system: MDA-MB-231 breast
MDA-MB-435 = test system: MDA-MB-435
MDA-N = test system: MDA-N
MOLT-4 leukemia = test system: MOLT-4 leukemia
NCI-H226 lung = test system: NCI-H226 lung
NCI-H23 lung = test system: NCI-H23 lung
NCI-H460 lung = test system: NCI-H460 lung
NCI-H522 lung = test system: NCI-H522 lung
NCI/ADR-RES ovarian = test system: NCI/ADR-RES ovarian
OVCAR-3 ovarian = test system: OVCAR-3 ovarian
OVCAR-4 ovarian = test system: OVCAR-4 ovarian
OVCAR-5 ovarian = test system: OVCAR-5 ovarian
OVCAR-8 ovarian = test system: OVCAR-8 ovarian
PC-3 prostate = test system: PC-3 prostate
RPMI-8226 leukemia = test system: RPMI-8226 leukemia
RXF 393 renal = test system: RXF 393 renal
SF-268 CNS = test system: SF-268 CNS
SF-295 CNS = test system: SF-295 CNS
SF-539 CNS = test system: SF-539 CNS
SK-MEL-2 melanoma = test system: SK-MEL-2 melanoma
SK-MEL-28 melanoma = test system: SK-MEL-28 melanoma
SK-MEL-5 melanoma = test system: SK-MEL-5 melanoma
SK-OV-3 ovarian = test system: SK-OV-3 ovarian
SN12C renal = test system: SN12C renal
SNB-19 CNS = test system: SNB-19 CNS
SNB-75 CNS = test system: SNB-75 CNS
SR leukemia = test system: SR leukemia
SW-620 colon = test system: SW-620 colon
T-47D breast = test system: T-47D breast
TK-10 renal = test system: TK-10 renal
U251 CNS = test system: U251 CNS
UACC-257 melanoma = test system: UACC-257 melanoma
UACC-62 melanoma = test system: UACC-62 melanoma
UO-31 renal = test system: UO-31 renal
HCC-2998 colon = test system: HCC-2998 colon

## N#CC(C#N)=Cc1c[nH]c(=O)[nH]c1=O
786-0 renal
  TGI: > 100 µM
A498 renal
  TGI: > 100 µM
A549 NSCLC
  TGI: > 100 µM
ACHN renal
  TGI: > 100 µM
BT-549 breast
  TGI: > 100 µM
CAKI-1 renal
  TGI: > 100 µM
CCRF-CEM leukemia
  TGI: 63.9 µM
COLO 205 colon
  TGI: > 100 µM
DU-145 prostate
  TGI: > 100 µM
EKVX NSCLC
  TGI: > 100 µM
HCT-116 colon
  TGI: > 100 µM
HCT-15 colon
  TGI: > 100 µM
HL-60(TB) leukemia
  TGI: > 100 µM
HOP-62 NSCLC
  TGI: > 100 µM
HOP-92 NSCLC
  TGI: > 100 µM
HS 578T breast
  TGI: > 100 µM
HT29 colon
  TGI: > 100 µM
IGROV1 ovarian
  TGI: > 100 µM
K-562 leukemia
  TGI: > 100 µM
KM12 colon
  TGI: > 100 µM
LOX IMVI melanoma
  TGI: > 100 µM
M14 melanoma
  TGI: > 100 µM
MALME-3M melanoma
  TGI: > 100 µM
MCF7 breast
  TGI: > 100 µM
MDA-MB-231 breast
  TGI: > 100 µM
MDA-MB-435
  TGI: > 100 µM
MDA-N
  TGI: > 100 µM
MOLT-4 leukemia
  TGI: > 100 µM
NCI-H226 lung
  TGI: > 100 µM
NCI-H23 lung
  TGI: > 100 µM
NCI-H460 lung
  TGI: > 100 µM
NCI-H522 lung
  TGI: > 100 µM
NCI/ADR-RES ovarian
  TGI: > 100 µM
OVCAR-3 ovarian
  TGI: > 100 µM
OVCAR-4 ovarian
  TGI: > 100 µM
OVCAR-5 ovarian
  TGI: > 100 µM
OVCAR-8 ovarian
  TGI: > 100 µM
PC-3 prostate
  TGI: > 100 µM
RPMI-8226 leukemia
  TGI: > 100 µM
RXF 393 renal
  TGI: > 100 µM
SF-268 CNS
  TGI: > 100 µM
SF-295 CNS
  TGI: > 100 µM
SF-539 CNS
  TGI: > 100 µM
SK-MEL-2 melanoma
  TGI: > 100 µM
SK-MEL-28 melanoma
  TGI: > 100 µM
SK-MEL-5 melanoma
  TGI: > 100 µM
SK-OV-3 ovarian
  TGI: > 100 µM
SN12C renal
  TGI: > 100 µM
SNB-19 CNS
  TGI: > 100 µM
SNB-75 CNS
  TGI: > 100 µM
SR leukemia
  TGI: > 100 µM
SW-620 colon
  TGI: > 100 µM
T-47D breast
  TGI: > 100 µM
TK-10 renal
  TGI: > 100 µM
U251 CNS
  TGI: > 100 µM
UACC-257 melanoma
  TGI: > 100 µM
UACC-62 melanoma
  TGI: > 100 µM
UO-31 renal
  TGI: > 100 µM

## CCC(C)C(NC(=O)C(NC(=O)C(CC(N)=O)NC(=O)CN)C(C)O)C(=O)NC(C(=O)NC(C)C(=O)NC(C(=O)NC(CCC(=O)O)C(=O)NC(CC(C)C)C(=O)NC(CC(=O)O)C(=O)NC(C(=O)NC(Cc1ccc(O)cc1)C(=O)N1CCCC1C(=O)O)C(C)O)C(C)C)C(C)C (stereo unspecified) (H-GNTIVAVELDTYP-OH; configuration not given here)
786-0 renal
  TGI: > 50 µM
A549 NSCLC
  TGI: > 50 µM
ACHN renal
  TGI: > 50 µM
BT-549 breast
  TGI: > 50 µM
CAKI-1 renal
  TGI: > 50 µM
CCRF-CEM leukemia
  TGI: > 50 µM
COLO 205 colon
  TGI: > 50 µM
DU-145 prostate
  TGI: > 50 µM
EKVX NSCLC
  TGI: > 50 µM
HCC-2998 colon
  TGI: > 50 µM
HCT-116 colon
  TGI: > 50 µM
HCT-15 colon
  TGI: > 50 µM
HL-60(TB) leukemia
  TGI: > 50 µM
HOP-62 NSCLC
  TGI: > 50 µM
HOP-92 NSCLC
  TGI: > 50 µM
HS 578T breast
  TGI: > 50 µM
HT29 colon
  TGI: > 50 µM
IGROV1 ovarian
  TGI: > 50 µM
K-562 leukemia
  TGI: > 50 µM
KM12 colon
  TGI: > 50 µM
LOX IMVI melanoma
  TGI: > 50 µM
M14 melanoma
  TGI: > 50 µM
MALME-3M melanoma
  TGI: > 50 µM
MCF7 breast
  TGI: > 50 µM
MDA-MB-231 breast
  TGI: > 50 µM
MDA-MB-435
  TGI: > 50 µM
MDA-N
  TGI: > 50 µM
MOLT-4 leukemia
  TGI: > 50 µM
NCI-H226 lung
  TGI: > 50 µM
NCI-H23 lung
  TGI: > 50 µM
NCI-H460 lung
  TGI: > 50 µM
NCI-H522 lung
  TGI: > 50 µM
NCI/ADR-RES ovarian
  TGI: > 50 µM
OVCAR-3 ovarian
  TGI: > 50 µM
OVCAR-4 ovarian
  TGI: > 50 µM
OVCAR-5 ovarian
  TGI: > 50 µM
OVCAR-8 ovarian
  TGI: > 50 µM
PC-3 prostate
  TGI: > 50 µM
RPMI-8226 leukemia
  TGI: > 50 µM
RXF 393 renal
  TGI: > 50 µM
SF-268 CNS
  TGI: > 50 µM
SF-295 CNS
  TGI: > 50 µM
SF-539 CNS
  TGI: > 50 µM
SK-MEL-2 melanoma
  TGI: > 50 µM
SK-MEL-28 melanoma
  TGI: > 50 µM
SK-MEL-5 melanoma
  TGI: > 50 µM
SK-OV-3 ovarian
  TGI: > 50 µM
SN12C renal
  TGI: > 50 µM
SNB-19 CNS
  TGI: > 50 µM
SNB-75 CNS
  TGI: > 50 µM
SR leukemia
  TGI: > 50 µM
SW-620 colon
  TGI: > 50 µM
T-47D breast
  TGI: > 50 µM
TK-10 renal
  TGI: > 50 µM
U251 CNS
  TGI: > 50 µM
UACC-257 melanoma
  TGI: > 50 µM
UACC-62 melanoma
  TGI: > 50 µM
UO-31 renal
  TGI: > 50 µM

Source: PubChem BioAssay (NCI)
